Experimental data reported in patent US20140017187A1, “Use of 5-(7-methoxy-3,3-dimethyl-2,3-dihydro-1-benzoxepin-5-yl)-3-methyl-penta-2,4-dienoic acid as a cosmetic” (Merck Patent GmbH, priority 2008, published 2014).
Several values for one entry are separate records, joined by “and”; a condition that tells them apart may be missing. Equal values may be shown once.

What was measured:
animal models [1] = settings: in vivo
PPARα = target: T1, PPARα (Homo sapiens, UniProt Q07869); assay: PPARα luciferase reporter gene activation in SK-Hep1 cells cotransfected with PPARα expression vector; type: cell-based; settings: for Fold Activation PPAR alpha, MEAN: mean of the two experiments in triplicate; for Fold Activation PPAR alpha: single values of triplicates, two experiments, relative to control; for balance of stimulation of PPAR-alpha and -gamma receptors: both receptors activated in the same concentration range
T1 construct: expressed in transfected cells; host or cells: human SK-Hep1 cells
T1 sequence (Q07869 1-468): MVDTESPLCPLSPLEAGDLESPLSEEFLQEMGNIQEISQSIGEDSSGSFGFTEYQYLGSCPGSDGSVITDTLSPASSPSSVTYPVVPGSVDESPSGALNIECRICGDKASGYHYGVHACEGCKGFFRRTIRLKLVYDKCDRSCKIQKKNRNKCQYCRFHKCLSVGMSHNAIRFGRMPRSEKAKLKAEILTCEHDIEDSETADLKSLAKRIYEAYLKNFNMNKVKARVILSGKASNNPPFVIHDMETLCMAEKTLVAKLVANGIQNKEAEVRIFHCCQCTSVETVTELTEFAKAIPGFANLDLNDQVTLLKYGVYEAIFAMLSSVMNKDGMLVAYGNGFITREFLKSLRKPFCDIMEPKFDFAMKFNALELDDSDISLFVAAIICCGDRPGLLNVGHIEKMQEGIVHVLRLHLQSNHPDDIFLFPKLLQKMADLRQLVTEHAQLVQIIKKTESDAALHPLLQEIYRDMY
Description: (§1) Analysis of the activation of PPARα and PPARγ is based on the transfection of a DNA allowing the expression of a reporter gene (the gene of luciferase) under the control of the PPARs, either endogenous in the case of PPARγ or cotransfected in the case of PPARα. The reporter plasmid J3TkLuc comprises three copies of the response element for PPARs of the human apo A-II gene (Staels, B et al. (1995), J. Clin. Invest., 95, 705-712) which are cloned upstream of the promoter of the thymidine kinase gene of the herpes simplex virus in the plasmid pGL3. This reporter gene was obtained by subcloning, in the plasmid pGL3, the plasmid J3TkCAT described above (Fajas, L et al. (1997), J. Biol. Chem., 272, 18779-18789). […] These cells were inoculated at a density of 20,000 cells per well (96-well plates) and transfected with 150 ng of reporter DNA complexed with a mixture of lipids. In the case of the SK-Hep1 cells, an expression vector for PPARα, described by Sher, T. et al. (1993), Biochemistry, 32, 5598-5604, is cotransfected. After 5 hours, the cells are washed twice and incubated for 36 hours in the presence of the test compound in a fresh culture medium comprising 10% foetal calf serum. At the end of incubation, the cells are lysed and the luciferase activity is measured.

[2] = tested on: subjects of skin type 3 or 4; assay: Double blind clinical trial of skin whitening activity on forearms, versus placebo formulation; type: in vivo, human; settings: oil-in-water emulsion with 1.0% Compound vs placebo, forearm, twice a day, 4½ weeks
Description: Skin whitening activity was evaluated in a double blind clinical trial. As study medication a oil-in-water emulsion formulation containing 1.0% of the Compound, in comparison with the same formulation containing no active ingredient (placebo) was used.
The study was executed with subjects of skin type 3 or 4, aged from 18 to 50 years, whereby the active formulation was applied on one forearm twice a day and the placebo formulation on the other forearm for 4½ weeks. Assessment of whitening efficacy was performed on both forearms at day 0, 14 and 28 by visual assessment (examination of pigmentation differences), colorimetric measurements (using Chroma-Meter CR 300, Minolta resulting in L* values, expressing the changes in brightness, and ITA° values Individual Typology Angle expressing the melanin index) as well as digital photographs.

animal models [3] = assay: Toxicity studies in animal models (in house data); settings: in vivo
PPARγ = PPARγ luciferase reporter gene activation in CV1 cells expressing endogenous PPARγ; type: cell-based, green monkey; settings: for Fold Activation PPAR gamma, MEAN: mean of the two experiments in triplicate; for Fold Activation PPAR gamma: single values of triplicates, two experiments, relative to control
Description: as §1

[4] = Skin/eye irritation test (in house data)

Fold Activation PPAR alpha, MEAN (PPARα; 0.3 μm): 1.4 fold | Fold Activation PPAR alpha, MEAN (PPARα; 1 μm): 0.7 fold | Fold Activation PPAR alpha, MEAN (PPARα; 3 μm): 0.8 fold | Fold Activation PPAR alpha, MEAN (PPARα; 10 μm): 1.2 fold | Fold Activation PPAR alpha, MEAN (PPARα; 30 μm): 4.9 fold | Fold Activation PPAR alpha, MEAN (PPARα; 50 μm): 8.0 fold | Fold Activation PPAR alpha, MEAN (PPARα; 100 μm): 6.9 fold | balance of stimulation of PPAR-alpha and -gamma receptors (PPARα): well-balanced stimulation | balance of stimulation of PPAR-alpha and -gamma receptors (PPARα; listed as EMD 336340): balanced activity
SMILES: COc1ccc2c(c1)C(/C=C/C(C)=C/C(=O)O)=CC(C)(C)CO2 [Compound, 5-(7-methoxy-3,3-dimethyl-2,3-dihydro-1-benzoxepin-5-yl)-3-methyl-penta-2,4-dienoic acid]
toxic effect in animal models (animal models [1]): no toxic effect | Fold Activation PPAR alpha (PPARα; 0.3 μm): 0.7 fold and 0.8 fold and 0.6 fold and 0.5 fold | Fold Activation PPAR alpha (PPARα; 3 μm): 0.6 fold and 0.7 fold and 1.0 fold and 1.1 fold and 0.8 fold | skin whitening activity [2]: extraordinary skin whitening activity | cell proliferation or apoptosis (animal models [3]): no indication | Fold Activation PPAR gamma, MEAN (PPARγ; 0.3 μm): 0.9 fold | Fold Activation PPAR gamma, MEAN (PPARγ; 1 μm): 1.0 fold | Fold Activation PPAR gamma (PPARγ; 1 μm): 0.8 fold and 1.2 fold and 0.9 fold and 1.0 fold and 1.3 fold | Fold Activation PPAR gamma, MEAN (PPARγ; 3 μm): 1.5 fold | Fold Activation PPAR gamma (PPARγ; 3 μm): 1.2 fold and 1.6 fold and 1.3 fold and 2.1 fold | Fold Activation PPAR gamma, MEAN (PPARγ; 10 μm): 5.2 fold | Fold Activation PPAR gamma, MEAN (PPARγ; 30 μm): 14.4 fold | Fold Activation PPAR gamma, MEAN (PPARγ; 50 μm): 17.6 fold | Fold Activation PPAR gamma, MEAN (PPARγ; 100 μm): 15.2 fold | skin/eye irritation [4]: no skin/eye irritation
